Columns and labels:
HT1080 cells [1] = tested on: HT1080 cells
Experimental: FIG. 7A and FIG. 7B depict the effect of photosensitive particles and radionuclides on cell viability. […] The control group was considered to be 100% viable. […] HT1080 cells were used and the values are means±s.e.m. (experiments for each group were run in triplicates).
The MTS (3-(4,5-di methylthiazol-2-yl)-5-(3-carboxymethoxyphenyl)-2-(4-sulfophenyl)-2H-tetrazolium) assay, a colorimetric assay for assessing cell viability was performed using the CellTiter 96® AQueous Non-Radioactive Cell Proliferation Assay kit (Promega Co.) according to the manufacturer's instructions.

HT1080 tumor = settings: mouse, in vivo
4T1 and HT1080 tumor = settings: mouse, in vivo
Description: The studies were commenced when tumor volume reached 500 mm^3. […] The animals were euthanized subsequently and major organs dissected and imaged in the same channel. Image J was used to quantitate fluorescence intensity by drawing regions of interest encompassing entire organs.

HT1080 cells [2] = assay: Lipid peroxidation assay (BODIPY 581/591 C11); assay type: cell-based
Experimental: BODIPY® 581i591 C11 reagent (Life Technologies Inc.) was used to quantitatively determine the degree of lipid peroxidation. It is a ratiometric fluorescence technique that relies on oxidation of lipids to shift fluorescence emission peak from 590 nm to 510 nm. […] All the compounds were incubated for 6 h at 37° C. Finally, the BODIPY-based dye (10 μM) was added and incubated for 30 min at 37° C. After washing the cells with PBS three times, the plate was analysed using a Synergy HT multimode plate reader (BioTek Instruments Inc., Winooski, USA) with excitation/emission of 581/591 nm for the reduced dye and at 488/510 nm for the oxidized dye. The ratio of the fluorescence intensities at 590/510 nm was plotted to derive the ratio of fluorescence change.

[3] = tested on: mitochondrial membrane potential; assay: Mitochondrial membrane potential assay (Mitotracker Green); assay type: cell-based; settings: coincubated with FDG
Experimental: For measuring mitochondrial membrane potential, Mitotracker Green (Life Technologies Inc.) was used according to manufacturer's instructions. Staurosporine (2 μM; Sigma Aldrich Co.) was used as positive control. Fluorescence readout was performed using a plate reader using excitation/emission wavelengths of 490/516 nm.

HT1080 cell line = settings: expected result of planned assay
cells = settings: literature; cited from earlier work
HT1080 tumors = assay type: in vivo, mice; settings: i.v. with FDG, monitored 15 days
Description: Tumor volume was registered every alternate day for 15 days.

Molecule: titanium dioxide [TiO2]
- concentration at which TiO2 particles did not induce apoptosis (HT1080 cells [1]): < 0.004 ng/mL
- concentration that did not induce apoptosis (HT1080 cells [1]): < 4000 ng/mL

Molecule: Tf: transferrin, tumor targeting protein; Alexa 680 labeled for biodistribution
- tumor to muscle ratio (HT1080 tumor): 5.3
- tumor:muscle ratio (4T1 and HT1080 tumor): 5.5

Molecule: Cc1c(C)c2c(c(C)c1O)CCC(C)(C(=O)O)O2 (centres unmarked) [Trolox, reference compound]
- effect of peroxyl radical scavenger on lipid peroxidation (HT1080 cells [2]; added to Tc and FDG): adequately inhibited this process

Molecule: Titanocene dichloride [Tc]
- mitochondrial membrane potential [3]: significant decrease in mitochondrial membrane potential
- peroxidation of cellular lipids (HT1080 cells [2]; with FDG): induced significant peroxidation and degradation of cellular lipids
- concentration that did not induce apoptosis (HT1080 cells [1]): < 10000 ng/mL
- LD50 Tc concentration, fold lower with CR than without FDG (HT1080 cell line): at least 4 fold
- concentration known to induce apoptosis in cells (cells): ≥ 12500 ng/mL
- tumor volume, fold smaller compared to controls (HT1080 tumors): four-fold

Source: US11135316B2, “Imaging and treatment of pathophysiologic conditions by Cerenkov radiation” (priority 2014, dated 2021)
